ChEMBL document CHEMBL4507311, “Data for DCP probe A-1155463” (2021)

Experiments:
[1] = target: Activin receptor type-1B (Homo sapiens) (UniProt P36896); conditions: Compound concentration 1000.0 nM
[2] = target: Ribosomal protein S6 kinase alpha-1 (Homo sapiens) (UniProt Q15418); conditions: Compound concentration 1000.0 nM
[3] = target: Mitogen-activated protein kinase kinase kinase 1 (Homo sapiens) (UniProt Q13233); conditions: Compound concentration 1000.0 nM
[4] = tested on: Epidermal growth factor receptor (Homo sapiens), P00533 [UNDEFINED MUTATION]; conditions: Compound concentration 1000.0 nM
[5] = target: Ribosomal protein S6 kinase alpha-4 (Homo sapiens) (UniProt O75676); conditions: Compound concentration 1000.0 nM
[6] = tested on: RS4-11; assay: CellTiter-Glo Luminescent Cell Viability Assay (BCL-2 dependent cell line RS4-11); format: functional, cell-based; conditions: Homo sapiens
[7] = target: Ephrin type-B receptor 3 (Homo sapiens) (UniProt P54753); conditions: Compound concentration 1000.0 nM
[8] = tested on: Receptor-type tyrosine-protein kinase FLT3 (Homo sapiens), P36888 [D835H]; conditions: Compound concentration 1000.0 nM
[9] = target: Serine/threonine-protein kinase 32C (Homo sapiens) (UniProt Q86UX6); conditions: Compound concentration 1000.0 nM
[10] = target: Death-associated protein kinase 1 (Homo sapiens) (UniProt P53355); conditions: Compound concentration 1000.0 nM
Chain of Death-associated protein kinase 1 (Homo sapiens) (P53355 whole entry, looked up): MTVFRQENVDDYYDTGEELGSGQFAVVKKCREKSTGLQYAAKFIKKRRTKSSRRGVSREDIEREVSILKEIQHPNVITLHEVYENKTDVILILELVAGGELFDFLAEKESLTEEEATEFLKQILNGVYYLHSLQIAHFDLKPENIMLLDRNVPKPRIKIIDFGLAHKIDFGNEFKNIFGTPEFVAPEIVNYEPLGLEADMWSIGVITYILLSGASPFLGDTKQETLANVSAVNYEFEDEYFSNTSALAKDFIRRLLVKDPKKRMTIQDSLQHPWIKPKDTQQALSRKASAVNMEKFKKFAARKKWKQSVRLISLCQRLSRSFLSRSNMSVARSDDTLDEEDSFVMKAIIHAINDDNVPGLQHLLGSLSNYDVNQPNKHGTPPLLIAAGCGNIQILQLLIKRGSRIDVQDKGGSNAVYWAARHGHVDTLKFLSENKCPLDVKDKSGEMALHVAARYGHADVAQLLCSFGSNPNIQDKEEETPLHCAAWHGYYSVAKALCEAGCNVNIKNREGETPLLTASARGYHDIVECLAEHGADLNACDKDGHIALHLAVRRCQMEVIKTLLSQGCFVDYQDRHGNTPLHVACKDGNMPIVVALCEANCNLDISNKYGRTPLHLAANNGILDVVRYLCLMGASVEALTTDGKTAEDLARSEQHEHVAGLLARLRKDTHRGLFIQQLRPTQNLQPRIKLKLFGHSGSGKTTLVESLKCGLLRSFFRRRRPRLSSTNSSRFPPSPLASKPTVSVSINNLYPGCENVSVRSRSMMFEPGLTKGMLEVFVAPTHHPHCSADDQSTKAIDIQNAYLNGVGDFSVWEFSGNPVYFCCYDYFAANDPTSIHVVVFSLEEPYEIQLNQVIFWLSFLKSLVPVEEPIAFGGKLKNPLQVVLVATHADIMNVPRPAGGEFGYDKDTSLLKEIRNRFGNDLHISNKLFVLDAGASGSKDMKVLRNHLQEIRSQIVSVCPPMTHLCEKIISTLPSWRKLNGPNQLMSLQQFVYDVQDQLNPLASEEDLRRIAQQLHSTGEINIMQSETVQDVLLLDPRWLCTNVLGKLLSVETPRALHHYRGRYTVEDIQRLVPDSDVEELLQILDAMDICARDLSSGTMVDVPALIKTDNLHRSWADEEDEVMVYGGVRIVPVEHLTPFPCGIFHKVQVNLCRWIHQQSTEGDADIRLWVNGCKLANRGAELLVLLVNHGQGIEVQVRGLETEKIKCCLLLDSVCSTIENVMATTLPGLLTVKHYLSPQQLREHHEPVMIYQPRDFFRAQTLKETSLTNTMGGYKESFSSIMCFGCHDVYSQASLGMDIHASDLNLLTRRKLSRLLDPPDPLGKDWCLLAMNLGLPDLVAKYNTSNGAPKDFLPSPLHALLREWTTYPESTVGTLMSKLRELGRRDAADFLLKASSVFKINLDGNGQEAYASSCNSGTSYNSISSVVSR

[11] = target: Tyrosine-protein kinase Blk (Homo sapiens) (UniProt P51451); conditions: Compound concentration 1000.0 nM
[12] = target: SRSF protein kinase 1 (Homo sapiens) (UniProt Q96SB4); conditions: Compound concentration 1000.0 nM
Chain of SRSF protein kinase 1 (Homo sapiens) (Q96SB4 whole entry): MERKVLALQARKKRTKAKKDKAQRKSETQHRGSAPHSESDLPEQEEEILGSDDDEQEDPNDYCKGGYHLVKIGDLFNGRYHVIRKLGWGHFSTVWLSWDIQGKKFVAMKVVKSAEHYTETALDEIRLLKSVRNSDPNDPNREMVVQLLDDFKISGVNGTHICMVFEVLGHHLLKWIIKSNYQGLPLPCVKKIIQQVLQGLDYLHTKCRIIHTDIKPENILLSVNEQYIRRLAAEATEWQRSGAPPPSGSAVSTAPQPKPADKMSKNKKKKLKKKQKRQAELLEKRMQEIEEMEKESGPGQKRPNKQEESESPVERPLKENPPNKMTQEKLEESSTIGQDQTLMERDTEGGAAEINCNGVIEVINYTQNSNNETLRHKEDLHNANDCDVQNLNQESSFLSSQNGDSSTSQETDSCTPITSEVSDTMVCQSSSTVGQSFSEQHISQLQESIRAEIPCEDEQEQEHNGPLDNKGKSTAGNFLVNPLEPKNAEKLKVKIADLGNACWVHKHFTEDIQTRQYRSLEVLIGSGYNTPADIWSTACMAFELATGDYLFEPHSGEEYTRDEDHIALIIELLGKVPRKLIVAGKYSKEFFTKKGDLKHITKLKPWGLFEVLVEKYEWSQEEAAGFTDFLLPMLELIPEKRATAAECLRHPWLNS

[13] = tested on: Mast/stem cell growth factor receptor Kit (Homo sapiens), P10721 [V559D,T670I]; conditions: Compound concentration 1000.0 nM
[14] = tested on: Tyrosine-protein kinase ABL1 (Homo sapiens), P00519 [F317L]; conditions: Compound concentration 1000.0 nM
[15] = target: Serine/threonine-protein kinase tousled-like 2 (Homo sapiens) (UniProt Q86UE8); conditions: Compound concentration 1000.0 nM
[16] = target: T1, 5-hydroxytryptamine receptor 3A (Homo sapiens) (UniProt P46098); conditions: Compound concentration 10.0 uM
T1 sequence (whole entry): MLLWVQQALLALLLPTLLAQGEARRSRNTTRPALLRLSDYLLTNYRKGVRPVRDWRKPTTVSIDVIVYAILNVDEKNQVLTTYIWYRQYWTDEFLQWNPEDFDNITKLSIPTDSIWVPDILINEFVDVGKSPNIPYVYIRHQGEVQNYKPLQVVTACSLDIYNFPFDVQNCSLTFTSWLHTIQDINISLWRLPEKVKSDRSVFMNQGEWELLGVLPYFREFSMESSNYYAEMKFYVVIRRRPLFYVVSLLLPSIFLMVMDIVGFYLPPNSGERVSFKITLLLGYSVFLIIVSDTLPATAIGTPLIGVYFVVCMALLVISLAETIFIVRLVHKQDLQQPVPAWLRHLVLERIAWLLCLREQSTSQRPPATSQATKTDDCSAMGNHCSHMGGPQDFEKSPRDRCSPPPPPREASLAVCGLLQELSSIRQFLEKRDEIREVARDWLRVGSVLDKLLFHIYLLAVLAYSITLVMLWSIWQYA

[17] = target: Leucine-rich repeat serine/threonine-protein kinase 2 (Homo sapiens) (UniProt Q5S007); conditions: Compound concentration 1000.0 nM
[18] = target: Receptor-type tyrosine-protein kinase FLT3 (Homo sapiens) (UniProt P36888); conditions: Compound concentration 1000.0 nM
[19] = target: Cyclin-dependent kinase 4 (Homo sapiens) (UniProt P11802); conditions: Compound concentration 1000.0 nM
Chain of Cyclin-dependent kinase 4 (Homo sapiens) (P11802 whole entry): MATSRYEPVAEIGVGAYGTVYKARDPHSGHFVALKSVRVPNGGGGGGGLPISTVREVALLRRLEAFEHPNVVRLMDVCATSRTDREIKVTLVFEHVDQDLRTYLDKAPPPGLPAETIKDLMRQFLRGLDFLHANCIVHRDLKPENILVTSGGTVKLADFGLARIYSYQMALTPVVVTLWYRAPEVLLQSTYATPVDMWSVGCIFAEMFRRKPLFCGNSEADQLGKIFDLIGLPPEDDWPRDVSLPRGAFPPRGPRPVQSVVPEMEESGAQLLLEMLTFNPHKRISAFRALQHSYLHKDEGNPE

[20] = target: BMP-2-inducible protein kinase (Homo sapiens) (UniProt Q9NSY1); conditions: Compound concentration 1000.0 nM
[21] = target: Casein kinase I isoform delta (Homo sapiens) (UniProt P48730); conditions: Compound concentration 1000.0 nM
[22] = target: Microtubule-associated serine/threonine-protein kinase 1 (Homo sapiens) (UniProt Q9Y2H9); conditions: Compound concentration 1000.0 nM
[23] = target: Myosin light chain kinase family member 4 (Homo sapiens) (UniProt Q86YV6); conditions: Compound concentration 1000.0 nM
[24] = target: 5-hydroxytryptamine receptor 5A (Homo sapiens) (UniProt P47898); conditions: Compound concentration 10.0 uM
[25] = target: ALK tyrosine kinase receptor (Homo sapiens) (UniProt Q9UM73); conditions: Compound concentration 1000.0 nM
Chain of ALK tyrosine kinase receptor (Homo sapiens) (Q9UM73 19-1620 limits assumed): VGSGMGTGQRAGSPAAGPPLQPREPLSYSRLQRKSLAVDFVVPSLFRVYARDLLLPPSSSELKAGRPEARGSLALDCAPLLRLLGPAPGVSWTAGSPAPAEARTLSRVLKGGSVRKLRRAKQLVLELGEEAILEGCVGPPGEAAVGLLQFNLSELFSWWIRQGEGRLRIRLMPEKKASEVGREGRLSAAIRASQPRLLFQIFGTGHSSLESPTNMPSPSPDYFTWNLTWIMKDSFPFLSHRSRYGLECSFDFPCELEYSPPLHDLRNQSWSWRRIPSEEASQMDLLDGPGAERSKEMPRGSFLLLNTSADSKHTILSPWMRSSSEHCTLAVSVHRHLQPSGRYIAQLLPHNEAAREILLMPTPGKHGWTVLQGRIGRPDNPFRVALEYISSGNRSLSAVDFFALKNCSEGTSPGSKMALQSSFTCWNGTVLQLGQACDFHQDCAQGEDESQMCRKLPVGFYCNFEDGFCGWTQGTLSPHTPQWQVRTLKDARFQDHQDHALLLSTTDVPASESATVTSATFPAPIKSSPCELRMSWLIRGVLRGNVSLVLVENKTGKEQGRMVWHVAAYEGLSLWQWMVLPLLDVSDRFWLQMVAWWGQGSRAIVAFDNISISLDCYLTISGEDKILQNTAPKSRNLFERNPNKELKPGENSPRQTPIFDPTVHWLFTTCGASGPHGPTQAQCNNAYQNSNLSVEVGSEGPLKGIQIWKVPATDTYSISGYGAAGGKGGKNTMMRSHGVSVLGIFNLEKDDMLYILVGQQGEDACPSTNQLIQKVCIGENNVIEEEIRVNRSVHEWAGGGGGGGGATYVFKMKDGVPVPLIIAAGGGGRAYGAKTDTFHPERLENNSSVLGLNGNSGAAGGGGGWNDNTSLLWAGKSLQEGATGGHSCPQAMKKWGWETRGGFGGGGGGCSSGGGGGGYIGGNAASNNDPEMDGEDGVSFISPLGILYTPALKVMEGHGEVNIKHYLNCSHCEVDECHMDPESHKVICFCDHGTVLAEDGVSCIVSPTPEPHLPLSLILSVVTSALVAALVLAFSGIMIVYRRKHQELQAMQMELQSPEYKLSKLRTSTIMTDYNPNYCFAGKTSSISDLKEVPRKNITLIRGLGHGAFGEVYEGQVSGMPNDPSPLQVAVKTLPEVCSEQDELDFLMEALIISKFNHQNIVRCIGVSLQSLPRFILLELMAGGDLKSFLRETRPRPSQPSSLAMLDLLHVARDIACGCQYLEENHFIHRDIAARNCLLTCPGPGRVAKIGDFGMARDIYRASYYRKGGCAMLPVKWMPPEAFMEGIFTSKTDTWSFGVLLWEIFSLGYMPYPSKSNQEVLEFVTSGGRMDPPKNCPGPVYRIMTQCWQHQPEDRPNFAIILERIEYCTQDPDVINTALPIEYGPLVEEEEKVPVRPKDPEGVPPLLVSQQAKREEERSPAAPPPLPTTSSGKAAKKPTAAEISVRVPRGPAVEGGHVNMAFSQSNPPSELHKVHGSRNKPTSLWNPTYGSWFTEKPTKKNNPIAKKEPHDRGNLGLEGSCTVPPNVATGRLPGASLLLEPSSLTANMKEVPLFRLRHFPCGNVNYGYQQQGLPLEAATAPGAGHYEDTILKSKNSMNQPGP

[26] = target: Tyrosine-protein kinase Fes/Fps (Homo sapiens) (UniProt P07332); conditions: Compound concentration 1000.0 nM
[27] = target: Serine/threonine-protein kinase 17B (Homo sapiens) (UniProt O94768); conditions: Compound concentration 1000.0 nM
Chain of Serine/threonine-protein kinase 17B (Homo sapiens) (O94768 whole entry): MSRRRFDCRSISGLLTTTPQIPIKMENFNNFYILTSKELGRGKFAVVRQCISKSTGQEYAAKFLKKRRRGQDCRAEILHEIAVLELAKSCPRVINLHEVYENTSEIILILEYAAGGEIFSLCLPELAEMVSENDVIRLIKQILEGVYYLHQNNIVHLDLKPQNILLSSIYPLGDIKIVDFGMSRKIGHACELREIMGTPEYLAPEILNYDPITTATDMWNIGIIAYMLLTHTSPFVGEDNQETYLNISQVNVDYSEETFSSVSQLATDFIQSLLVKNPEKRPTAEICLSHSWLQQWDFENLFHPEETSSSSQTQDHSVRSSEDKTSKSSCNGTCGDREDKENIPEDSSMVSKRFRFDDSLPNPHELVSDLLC

[28] = target: Mitogen-activated protein kinase kinase kinase 7 (Homo sapiens) (UniProt O43318); conditions: Compound concentration 1000.0 nM
[29] = tested on: Phosphatidylinositol 4,5-bisphosphate 3-kinase catalytic subunit alpha isoform (Homo sapiens), P42336 [E542K]; conditions: Compound concentration 1000.0 nM
[30] = target: Peripheral plasma membrane protein CASK (Homo sapiens) (UniProt O14936); conditions: Compound concentration 1000.0 nM
[31] = target: MAP/microtubule affinity-regulating kinase 3 (Homo sapiens) (UniProt P27448); conditions: Compound concentration 1000.0 nM
[32] = target: Ribosomal protein S6 kinase alpha-2 (Homo sapiens) (UniProt Q15349); conditions: Compound concentration 1000.0 nM
[33] = target: Myotonin-protein kinase (Homo sapiens) (UniProt Q09013); conditions: Compound concentration 1000.0 nM
[34] = target: Casein kinase I isoform gamma-2 (Homo sapiens) (UniProt P78368); conditions: Compound concentration 1000.0 nM
[35] = target: Dual specificity protein kinase CLK3 (Homo sapiens) (UniProt P49761); conditions: Compound concentration 1000.0 nM
Chain of Dual specificity protein kinase CLK3 (Homo sapiens) (P49761 whole entry, looked up): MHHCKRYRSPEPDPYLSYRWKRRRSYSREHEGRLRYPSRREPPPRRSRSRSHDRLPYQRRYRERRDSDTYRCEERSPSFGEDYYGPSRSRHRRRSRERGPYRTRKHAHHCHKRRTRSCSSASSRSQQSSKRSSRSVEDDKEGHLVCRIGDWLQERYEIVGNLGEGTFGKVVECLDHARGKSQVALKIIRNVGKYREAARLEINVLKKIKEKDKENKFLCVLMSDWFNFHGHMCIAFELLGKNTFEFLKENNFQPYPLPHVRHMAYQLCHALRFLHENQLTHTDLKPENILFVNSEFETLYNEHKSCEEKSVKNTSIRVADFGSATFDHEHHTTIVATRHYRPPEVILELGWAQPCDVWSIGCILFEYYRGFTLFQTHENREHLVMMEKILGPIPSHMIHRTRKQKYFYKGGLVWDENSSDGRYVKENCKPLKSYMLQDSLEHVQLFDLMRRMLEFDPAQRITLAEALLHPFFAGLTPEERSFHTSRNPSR

[36] = target: Mitogen-activated protein kinase kinase kinase 9 (Homo sapiens) (UniProt P80192); conditions: Compound concentration 1000.0 nM
[37] = target: Dual specificity mitogen-activated protein kinase kinase 7 (Homo sapiens) (UniProt O14733); conditions: Compound concentration 1000.0 nM
[38] = target: Cyclin-dependent kinase 8 (Homo sapiens) (UniProt P49336); conditions: Compound concentration 1000.0 nM
[39] = target: Sigma intracellular receptor 2 (Homo sapiens, UniProt Q5BJF2); conditions: Compound concentration 10.0 uM
Chain of Sigma intracellular receptor 2 (Q5BJF2 whole entry): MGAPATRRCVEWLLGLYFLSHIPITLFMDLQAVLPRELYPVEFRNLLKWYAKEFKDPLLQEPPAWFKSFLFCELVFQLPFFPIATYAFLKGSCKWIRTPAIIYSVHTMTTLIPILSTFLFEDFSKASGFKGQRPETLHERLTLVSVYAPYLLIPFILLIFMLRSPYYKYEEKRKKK

Q: For `CN(C)CC#Cc1ccc(OCCCc2sc(N3CCc4cccc(C(=O)Nc5nc6ccccc6s5)c4C3)nc2C(=O)O)c(F)c1` [A-1155463], which residual activity [1] is on record?
A: 100%

Q: And the residual activity [2]?
A: 93%

Q: What about the residual activity [3] of the same compound?
A: 100%

Q: What about the residual activity [4] of the same compound?
A: 89%

Q: And the residual activity [5]?
A: 100%

Q: What about the EC50 [6] of the same compound?
A: > 10 µM (not active)

Q: What about the residual activity [7] of the same compound?
A: 100%

Q: What about the residual activity [8] of the same compound?
A: 93%

Q: What about the residual activity [9] of the same compound?
A: 75%

Q: And the residual activity [10]?
A: 91%

Q: What about the residual activity [11] of the same compound?
A: 92%

Q: What about the residual activity [12] of the same compound?
A: 100%

Q: What about the residual activity [13] of the same compound?
A: 95%

Q: And the residual activity [14]?
A: 100%

Q: And the residual activity [15]?
A: 100%

Q: And the inhibition [16]?
A: 85.4%

Q: What about the residual activity [17] of the same compound?
A: 100%

Q: And the residual activity [18]?
A: 80%

Q: And the residual activity [19]?
A: 100%

Q: What about the residual activity [20] of the same compound?
A: 97%

Q: And the residual activity [21]?
A: 95%

Q: And the residual activity [22]?
A: 89%

Q: What about the residual activity [23] of the same compound?
A: 99%

Q: And the inhibition [24]?
A: -3.1%

Q: And the residual activity [25]?
A: 100%

Q: What about the residual activity [26] of the same compound?
A: 100%

Q: And the residual activity [27]?
A: 72%

Q: What about the residual activity [28] of the same compound?
A: 100%

Q: What about the residual activity [29] of the same compound?
A: 72%

Q: And the residual activity [30]?
A: 100%

Q: And the residual activity [31]?
A: 38%

Q: What about the residual activity [32] of the same compound?
A: 94%

Q: What about the residual activity [33] of the same compound?
A: 100%

Q: And the residual activity [34]?
A: 92%

Q: And the residual activity [35]?
A: 86%

Q: What about the residual activity [36] of the same compound?
A: 92%

Q: And the residual activity [37]?
A: 69%

Q: And the residual activity [38]?
A: 69%

Q: And the inhibition [39]?
A: 83%
